“Also recorded” adds a separate entry of the source. Like-named read-outs stand apart in the source and are kept apart here.
How the values were obtained:
[1] = molecular target: T1, DOR (T7-tag-DOR) in HEK293 cells (Homo sapiens, UniProt P41143); assay: cADDis cAMP assay, DOR; format: cell-based
T1 construct: T7-tag; expressed in transfected cells

[2] = molecular target: T2, MOR/DOR heteromer (Halotag-MOR/T7-tag-DOR) in HEK293 cells (Homo sapiens, UniProt P35372+P41143); assay: cADDis cAMP assay, MOR/DOR heteromer; format: cell-based
T2 construct: HaloTag; T7-tag; expressed in transfected cells
T2 sequence (P35372 whole entry): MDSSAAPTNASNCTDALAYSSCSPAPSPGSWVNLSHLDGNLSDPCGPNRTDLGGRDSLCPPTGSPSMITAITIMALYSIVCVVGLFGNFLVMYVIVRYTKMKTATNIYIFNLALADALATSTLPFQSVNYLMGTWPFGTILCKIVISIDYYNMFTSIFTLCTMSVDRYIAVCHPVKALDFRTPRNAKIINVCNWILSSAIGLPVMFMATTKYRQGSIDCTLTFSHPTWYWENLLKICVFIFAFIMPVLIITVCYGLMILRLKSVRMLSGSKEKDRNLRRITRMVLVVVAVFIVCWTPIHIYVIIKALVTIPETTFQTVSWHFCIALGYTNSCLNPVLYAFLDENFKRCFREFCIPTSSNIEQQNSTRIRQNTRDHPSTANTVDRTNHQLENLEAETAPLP
T2 sequence (P41143 whole entry): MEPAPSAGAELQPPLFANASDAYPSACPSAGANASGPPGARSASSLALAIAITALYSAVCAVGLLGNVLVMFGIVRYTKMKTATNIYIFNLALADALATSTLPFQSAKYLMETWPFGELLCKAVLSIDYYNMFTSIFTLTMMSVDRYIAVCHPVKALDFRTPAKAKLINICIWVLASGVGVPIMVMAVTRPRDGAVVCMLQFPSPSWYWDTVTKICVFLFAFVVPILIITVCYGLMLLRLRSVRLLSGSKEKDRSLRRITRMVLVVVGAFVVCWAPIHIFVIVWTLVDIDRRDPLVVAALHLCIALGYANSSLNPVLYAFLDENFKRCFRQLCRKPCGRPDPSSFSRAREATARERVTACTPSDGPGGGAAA

DOR (CHO-K1 OPRD1) = assay: PathHunter β-arrestin recruitment assay, DOR; format: cell-based; details: 37 °C; for β-arrestin recruitment, DOR, in words: PathHunter, compared with 10^−5 M SNC-80, 90 min, n = 3–6
[3] = molecular target: T3, KOR (Halotag-KOR) in HEK293 cells (Homo sapiens, UniProt P41145); assay: CellKey impedance assay, antagonist mode, KOR; format: cell-based; details: combined with U-50488H (10^−11–10^−5 M); negative control at 10^−5 concentration; n = 3–4
T3 construct: HaloTag; expressed in transfected cells
T3 sequence (P41145 whole entry): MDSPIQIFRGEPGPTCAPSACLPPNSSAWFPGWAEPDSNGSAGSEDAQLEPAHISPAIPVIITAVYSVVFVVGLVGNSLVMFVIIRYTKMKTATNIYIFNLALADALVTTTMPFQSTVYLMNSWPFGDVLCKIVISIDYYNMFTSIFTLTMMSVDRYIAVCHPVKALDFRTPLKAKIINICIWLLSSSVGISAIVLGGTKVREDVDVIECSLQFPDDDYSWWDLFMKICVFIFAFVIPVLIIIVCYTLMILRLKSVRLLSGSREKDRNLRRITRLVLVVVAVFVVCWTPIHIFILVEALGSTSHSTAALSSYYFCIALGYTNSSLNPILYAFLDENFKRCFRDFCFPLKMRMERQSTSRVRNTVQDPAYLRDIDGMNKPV

[4] = molecular target: T3, KOR (Halotag-KOR) in HEK293 cells; assay: cell-based; details: HEK293, read-out: Emax, cAMP assay, KOR (Table 1)
DOR [5] = assay: G-protein bias at DOR, cADDis cAMP versus PathHunter β-arrestin; format: cell-based; details: concluded from cADDis cAMP and PathHunter β-arrestin assays
[6] = molecular target: MOR (Halotag-MOR) in HEK293 cells (Homo sapiens, UniProt P35372); assay: cell-based; format: cell-based
Chain of MOR (Halotag-MOR) in HEK293 cells (P35372 whole entry): as the sequence (P35372 whole entry) above

DOR [7] = details: rubiscolin-5 compared with rubiscolin-6; cited from earlier work
Text: (§1) In view of the results of our cAMP assay, rubiscolins can be considered DOR-biased agonists, consistent with previous reports. […] Indeed, there is a structural ...

receptor = details: rubiscolin-6 versus rubiscolin-5; cited from earlier work
Text: as §1

[8] = rubiscolin-6 versus rubiscolin-5; cited from earlier work
Text: as §1

MOR (OPRM1) = assay: PathHunter β-arrestin recruitment assay, MOR; format: cell-based; details: compared with 10^−5 M DAMGO, 90 min, 37 °C, n = 3–6
[9] = HEK293, read-out: Emax, cAMP assay, DOR (Table 1)
[10] = HEK293, read-out: Emax, cAMP assay, DOR (Table 2)
[11] = HEK293, read-out: Emax, cAMP assay, MOR (Table 1)
[12] = HEK293, read-out: Emax, cAMP assay, MOR (Table 2)
[13] = cADDis cAMP assay, HEK293 T7-tag-DOR

T1 sequence (P41143 whole entry): as the sequence (P41143 whole entry) above

Compound | Emax [4] | β-arrestin recruitment, DOR, in words (DOR (CHO-K1 OPRD1)) | EC50 [1] | Emax [1, 9] | Emax [1, 10] | G-protein bias / agonist type at DOR (DOR [5]) | Emax [6, 11] | Emax [6, 12] | effect through G-protein-mediated pathway (cAMP), DOR, in words [1, 13] | other results
C[C@@H](NC(=O)[C@@H](N)Cc1ccc(O)cc1)C(=O)NCC(=O)N(C)[C@@H](Cc1ccccc1)C(=O)NCCO [DAMGO, D-Ala(2)-N-Me-Phe(4)-Gly-ol(5)-enkephalin, reference compound] |  |  |  |  |  |  |  |  |  | Emax ([1]; HEK293; read-out: Emax, cAMP assay, DOR (Table 1)): 90.9 ± 8.9%; Emax ([1]; HEK293; read-out: Emax, cAMP assay, DOR (Table 2)): 90.9 ± 8.9%; Emax ([2]; relative to 10^−5 M ML335, cADDis sensor, 50 μM forskolin, 28 °C, 40 min reading, 10^−11–10^−5 M, means ± S.E.M. (n = 6–8), Figure 6, + p < 0.05 vs ML335, read-out: Emax, cAMP assay, MOR/DOR (Table 2)): 91.1 ± 5.4%
C=CCN1C[C@H](C)N([C@H](c2ccc(C(=O)N(CC)CC)cc2)c2cccc(OC)c2)C[C@H]1C [SNC-80, (+)-4-[(aR)-a-((2S,5R)-4-allyl-2,5-dimethyl-1-piperazinyl)-3-methoxybenzyl]-N,N-diethylbenzamide, reference compound] |  |  |  |  |  |  |  |  |  | Emax, β-arrestin recruitment, DOR (DOR (CHO-K1 OPRD1); relative to 10^−5 M SNC-80, 90 min stimulation, luminescence, 10^−11–10^−5 M, means ± S.E.M. (n = 3–6), Figure 5B): 100.0 ± 2.6%
Oc1ccc2c3c1O[C@H]1c4[nH]c5c(c4C[C@@]4(O)[C@@H](C2)N(CC2CC2)CC[C@]314)C[C@@]1(O)[C@H]2Cc3ccc(O)c4c3[C@@]1(CCN2CC1CC1)[C@H]5O4 [norBNI, norbinaltorphimine] |  |  |  |  |  |  |  |  |  | antagonistic effect, CellKey, KOR [3]: completely suppressed the agonistic effects of the positive control
H-YPLDL-OH [Rubiscolin-5, H-Tyr-Pro-Leu-Asp-Leu-OH] | 9.6 ± 9% | the most irrelevant with regard to the activity through the β-arrestin-mediated pathway; also recorded: equivalently negligible | 501 nM | 78.4 ± 6.7% | 78.4 ± 6.7% | G-protein-biased DOR full agonists without affecting MOR and KOR | 27.5 ± 5.5% | 27.5 ± 5.5% |  | G-protein bias (bias factor), previous study (DOR [7]): more G-protein-biased than rubiscolin-6
H-YPLDLF-OH [Rubiscolin-6, H-Tyr-Pro-Leu-Asp-Leu-Phe-OH] | 39.8 ± 20.5% | the most irrelevant with regard to the activity through the β-arrestin-mediated pathway; also recorded: equivalently negligible | 316 nM | 103 ± 4.1% | 103 ± 4.1% | G-protein-biased DOR full agonists without affecting MOR and KOR | 14.3 ± 3.2% | 14.3 ± 3.2% | robust effect on DOR at 10^−5 concentration; also recorded: relatively stronger than rubiscolin-5 in activating the G-protein-mediated intracellular pathway | receptor affinity relative to rubiscolin-5 (receptor): higher receptor affinity; potency in analgesia relative to rubiscolin-5 [8]: about twice as potent in analgesia as rubiscolin-5
ML335 [reference compound] |  | partially recruited β-arrestin through both MOR and DOR |  |  |  |  |  |  | full agonist for both MOR and DOR | pEC50, cAMP assay, DOR (Table 2) ([1]; -LogEC50; HEK293 T7-tag-DOR; means ± S.E.M. (n = 6–8), Figure 6; # p < 0.05 vs SNC-80): 7.5 ± 0.1 ^# M; Emax, cAMP assay, DOR (Table 2) ([1]; relative to 10^−5 M SNC-80; HEK293 T7-tag-DOR; forskolin-stimulated; 10^−11–10^−5 M; means ± S.E.M. (n = 6–8), Figure 6; # p < 0.05 vs SNC-80): 111.6 ± 3.6%; β-arrestin recruitment, MOR, in words (MOR (OPRM1)): partially recruited β-arrestin through both MOR and DOR; Emax, cAMP assay, MOR (Table 2) [6]: 112.5 ± 5.3%; effect through G-protein-mediated pathway (cAMP), MOR, in words [6]: full agonist for both MOR and DOR; pEC50, cAMP assay, MOR (Table 2) [6]: 7.6 ± 0.1 M; pEC50, cAMP assay, MOR/DOR (Table 2) ([2]; -LogEC50, means ± S.E.M. (n = 6–8), Figure 6, + p < 0.05 vs ML335): 7.0 ± 0.1 M; effect through G-protein-mediated pathway (cAMP), MOR/DOR heteromer, in words ([2]; cADDis cAMP assay, compared with ML335): full agonist of MOR/DOR; Emax, cAMP assay, MOR/DOR (Table 2) ([2]; relative to 10^−5 M ML335, cADDis sensor, 50 μM forskolin, 28 °C, 40 min reading, 10^−11–10^−5 M, means ± S.E.M. (n = 6–8), Figure 6, + p < 0.05 vs ML335): 100.0 ± 4.2%

From paper PMC8513079 (Molecules, 2021)
